Source: patent US8716473B2, “Substituted benzotriazines and quinoxalines as inhibitors of P7OS6 kinase” (Sentinel Oncology Limited, priority 2009, dated 2014)
Where a name gives a salt, the structure may show the parent alone.

Legend:
p70S6K (h) = p70S6K (h) (Homo sapiens, UniProt P23443); assay: Determination of p70S6 inhibitory activity (radiometric 33P-ATP filter assay); assay type: biochemical; conditions: 40 min at room temperature, read-out: IC50 against P70S6 kinase
Method: The ability of compounds of the invention to inhibit P70S6 kinase was determined using the protocol below.
• 20 mM MOPS, 1 mM EDTA, 0.01% Brij-35, 5% Glycerol, 0.1% b-mercaptoethanol, 1 mg/mL BSA Method: • p70S6K (h)
In a final reaction volume of 25 μL, p70S6K (h) (5-10 mU) is incubated with 8 mM MOPS pH 7.0, 0.2 mM EDTA, 100 μM KKRNRTLTV, 10 mM Mg acetate and [γ-33P-ATP] (specific activity approx. 500 cpm/pmol, concentration as required). The reaction is initiated by the addition of the MgATP mix. After incubation for 40 minutes at room temperature, the reaction is stopped by the addition of 5 μL of a 3% phosphoric acid solution. 10 μL of the reaction mixture is then spotted onto a P30 filtermat and washed three times for 5 minutes in 75 mM phosphoric acid and once in methanol prior to drying and scintillation counting.

[1] = test system: phosphorylation of S6 Ser235/236 in MCF-7 cells; assay: Inhibition of P70S6K activity in whole cells: phospho-S6 ELISA in MCF-7 cells; assay type: cell-based; conditions: Homo sapiens, MCF7, 2 h incubation, 1% FBS
Method: The following assay provides IC50 values for inhibition of P70S6K activity in a whole cell assay by determining effects on the phosphorylation of S6^Ser235/236 in MCF-7 cells by ELISA.
The following protocol was used: • 1) MCF-7 cells were seeded in 96-well plates at a density of 7×10^3 cells per well and allowed to adhere for 6 h in media containing 10% FBS. • 2) The full serum media was replaced and cells incubated overnight in media containing 1% FBS, prior to addition of test compounds. • 3) Test compounds were prepared from 10 mM or 5 mM (BEZ-235) DMSO stocks to give final concentration ranges as indicated on graphs. DMSO was constant at a final concentration of 1%. • 4) Test compounds were incubated with cells in duplicate for 2 h at 37° C./5% CO2 in a humidified atmosphere. • 5) The media was removed and cells were lysed by freeze-thawing in cell lysis buffer. • 6) Detection of phosphorylated S6Ser235/236 was then carried out using a PathScan ELISA kit (Cell Signaling Technology #7205). • 7) Lysates were diluted 1:1 with sample diluent before being applied to wells coated with an antibody against phosphorylated-S6 protein. • 8) The ELISA was then performed as stated in the manufacturers' instructions. • 9) The raw data were normalised to control values and analysed using a 4-parameter logistic equation in GraphPad Prism.

MCF-7 cells = assay: MCF-7 proliferation assay (Alamar blue); assay type: cell-based; conditions: Homo sapiens, MCF7, 72 h incubation, read-out: IC50 for inhibition of cell growth
Method: The following assay was used to determine the ability of test compounds to inhibit cell growth.
The following protocol was used: • 1) MCF-7 cells were seeded in 96-well plates at 5000 cells per well and allowed to adhere overnight prior to addition of compound or vehicle control. • 2) Test compounds were prepared from 10 mM DMSO stocks to give a final concentration range of 100 μM, 30 μM, 10 μM, 3 μM, 1 μM, 0.3 μM, 0.1 μM, 0.03 μM, 0.01 μM and vehicle control. The DMSO content was constant at 1%. • 3) Test compounds were incubated with the cells for 72 h at 37° C. 5% CO2 in a humidified atmosphere. • 4) Alamar blue 10% (v/v) was then added and incubated for a further 6 h, and fluorescent product detected using the BMG FLUOstar plate reader. • 5) Data were analysed using a 4-parameter logistic equation in Graph Pad Prism.

p70S6K (h), sequence (P23443 whole entry): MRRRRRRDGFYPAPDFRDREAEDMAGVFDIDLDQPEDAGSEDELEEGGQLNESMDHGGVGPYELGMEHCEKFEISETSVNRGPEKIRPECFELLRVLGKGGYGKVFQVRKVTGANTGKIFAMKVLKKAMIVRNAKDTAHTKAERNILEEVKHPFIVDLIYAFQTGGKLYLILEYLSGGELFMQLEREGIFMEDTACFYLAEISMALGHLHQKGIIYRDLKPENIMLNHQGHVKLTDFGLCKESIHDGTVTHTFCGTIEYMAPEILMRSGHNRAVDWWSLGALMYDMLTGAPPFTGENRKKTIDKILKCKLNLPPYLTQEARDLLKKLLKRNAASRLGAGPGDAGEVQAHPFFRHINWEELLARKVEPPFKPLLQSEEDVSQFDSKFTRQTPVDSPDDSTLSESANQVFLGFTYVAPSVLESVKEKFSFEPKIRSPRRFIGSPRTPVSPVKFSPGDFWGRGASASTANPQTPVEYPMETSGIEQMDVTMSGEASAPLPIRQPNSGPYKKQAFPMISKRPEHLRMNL

Structure (SMILES): c1ccc(CNc2cnc3cc(-c4cn[nH]c4)ccc3n2)cc1 [Example 1, Benzyl-[6-(1H-pyrazol-4-yl)-quinoxalin-2-yl]-amine]
- IC50 (p70S6K (h)): < 0.1 µM
- IC50 [1]: < 5 µM
- IC50 (MCF-7 cells): < 10 µM

Structure (SMILES): CN(Cc1ccccc1)c1cnc2cc(-c3cn[nH]c3)ccc2n1 [Example 2, Benzyl-methyl-[6-(1H-pyrazol-4-yl)-quinoxalin-2-yl]-amine hydrochloride]
- IC50 (p70S6K (h)): < 0.1 µM
- IC50 [1]: < 5 µM
- IC50 (MCF-7 cells): < 20 µM

Structure (SMILES): OCCN(Cc1ccccc1)c1cnc2cc(-c3cn[nH]c3)ccc2n1 [Example 3, 2-{Benzyl-[6-(1H-pyrazol-4-yl)-quinoxalin-2-yl]-amino}-ethanol]
- IC50 (p70S6K (h)): < 0.1 µM
- IC50 [1]: < 5 µM
- IC50 (MCF-7 cells): < 20 µM

Structure (SMILES): CN1CCN(c2cccc(CNc3cnc4cc(-c5cn[nH]c5)ccc4n3)c2)CC1 [Example 6, [3-(4-Methyl-piperazin-1-yl)-benzyl]-[6-(1H-pyrazol-4-yl)-quinoxalin-2-yl]-amine hydrochloride]
- IC50 (p70S6K (h)): < 1 µM
- IC50 [1]: < 5 µM
- IC50 (MCF-7 cells): < 20 µM

Structure (SMILES): c1cc(CNc2cnc3cc(-c4cn[nH]c4)ccc3n2)cc(N2CCOCC2)c1 [Example 7, (3-Morpholin-4-yl-benzyl)-[6-(1H-pyrazol-4-yl)-quinoxalin-2-yl]-amine hydrochloride]
- IC50 (p70S6K (h)): < 5 µM
- IC50 [1]: < 5 µM
- IC50 (MCF-7 cells): < 20 µM

Structure (SMILES): Clc1ccc(CNc2cnc3cc(-c4cn[nH]c4)ccc3n2)cc1 [Example 8, (4-Chloro-benzyl)-[6-(1H-pyrazol-4-yl)-quinoxalin-2-yl]-amine]
- IC50 (p70S6K (h)): < 0.1 µM
- IC50 [1]: < 5 µM
- IC50 (MCF-7 cells): < 20 µM

Structure (SMILES): Clc1cccc(CNc2cnc3cc(-c4cn[nH]c4)ccc3n2)c1 [Example 9, (3-Chloro-benzyl)-[6-(1H-pyrazol-4-yl)-quinoxalin-2-yl]-amine]
- IC50 (p70S6K (h)): < 0.1 µM
- IC50 [1]: < 1 µM
- IC50 (MCF-7 cells): < 20 µM

Structure (SMILES): Fc1ccc(CNc2cnc3cc(-c4cn[nH]c4)ccc3n2)cc1 [Example 11, (4-Fluoro-benzyl)-[6-(1H-pyrazol-4-yl)-quinoxalin-2-yl]-amine hydrochloride]
- IC50 (p70S6K (h)): < 0.1 µM
- IC50 [1]: < 5 µM
- IC50 (MCF-7 cells): < 10 µM

Structure (SMILES): Fc1cccc(CNc2cnc3cc(-c4cn[nH]c4)ccc3n2)c1 [Example 12, (3-Fluoro-benzyl)-[6-(1H-pyrazol-4-yl)-quinoxalin-2-yl]-amine hydrochloride]
- IC50 (p70S6K (h)): < 0.1 µM
- IC50 [1]: < 5 µM
- IC50 (MCF-7 cells): < 10 µM

Structure (SMILES): Fc1ccccc1CNc1cnc2cc(-c3cn[nH]c3)ccc2n1 [Example 13, (2-Fluoro-benzyl)-[6-(1H-pyrazol-4-yl)-quinoxalin-2-yl]-amine hydrochloride]
- IC50 (p70S6K (h)): < 1 µM
- IC50 (MCF-7 cells): < 20 µM

Structure (SMILES): COc1ccc(CNc2cnc3cc(-c4cn[nH]c4)ccc3n2)cc1 [Example 17, (4-Methoxy-benzyl)-[6-(1H-pyrazol-4-yl)-quinoxalin-2-yl]-amine]
- IC50 (p70S6K (h)): < 1 µM
- IC50 [1]: < 5 µM
- IC50 (MCF-7 cells): < 10 µM

Structure (SMILES): COc1cccc(CNc2cnc3cc(-c4cn[nH]c4)ccc3n2)c1 [Example 18, (3-Methoxy-benzyl)-[6-(1H-pyrazol-4-yl)-quinoxalin-2-yl]-amine]
- IC50 (p70S6K (h)): < 0.1 µM
- IC50 [1]: < 1 µM
- IC50 (MCF-7 cells): < 10 µM

Structure (SMILES): CN(Cc1ccc(F)cc1)c1cnc2cc(-c3cn[nH]c3)ccc2n1 [Example 21, (4-Fluoro-benzyl)-methyl-[6-(1H-pyrazol-4-yl)-quinoxalin-2-yl]-amine]
- IC50 (p70S6K (h)): < 0.1 µM
- IC50 [1]: < 5 µM
- IC50 (MCF-7 cells): < 50 µM

Structure (SMILES): c1ccc(CCNc2cnc3cc(-c4cn[nH]c4)ccc3n2)cc1 [Example 25, Phenethyl-[6-(1H-pyrazol-4-yl)-quinoxalin-2-yl]-amine hydrochloride]
- IC50 (p70S6K (h)): < 0.1 µM
- IC50 [1]: < 5 µM
- IC50 (MCF-7 cells): < 20 µM

Structure (SMILES): CCN(Cc1ccccc1)c1cnc2cc(-c3cn[nH]c3)ccc2n1 [Example 26, Benzyl-ethyl-[6-(1H-pyrazol-4-yl)-quinoxalin-2-yl]-amine]
- IC50 (p70S6K (h)): < 0.1 µM
- IC50 (MCF-7 cells): < 50 µM

Structure (SMILES): COc1cccc(CN(C)c2cnc3cc(-c4cn[nH]c4)ccc3n2)c1 [Example 27, (3-Methoxy-benzyl)-methyl-[6-(1H-pyrazol-4-yl)-quinoxalin-2-yl]-amine]
- IC50 (p70S6K (h)): < 0.1 µM
- IC50 [1]: < 1 µM
- IC50 (MCF-7 cells): < 50 µM

Structure (SMILES): CN(Cc1cccc(F)c1)c1cnc2cc(-c3cn[nH]c3)ccc2n1 [Example 28, (3-Fluoro-benzyl)-methyl-[6-(1H-pyrazol-4-yl)-quinoxalin-2-yl]-amine]
- IC50 (p70S6K (h)): < 0.1 µM
- IC50 [1]: < 1 µM
- IC50 (MCF-7 cells): < 10 µM

Structure (SMILES): CN(C)CCOc1cccc(CNc2cnc3cc(-c4cn[nH]c4)ccc3n2)c1 [Example 31, [3-(2-Dimethylamino-ethoxy)-benzyl]-[6-(1H-pyrazol-4-yl)-quinoxalin-2-yl]-amine hydrochloride]
- IC50 (p70S6K (h)): < 5 µM
- IC50 (MCF-7 cells): < 20 µM

Structure (SMILES): Fc1ccc(CNc2cnc3cc(-c4cn[nH]c4)ccc3n2)cc1F [Example 32, (3,4-Difluoro-benzyl)-[6-(1H-pyrazol-4-yl)-quinoxalin-2-yl]-amine]
- IC50 (p70S6K (h)): < 0.1 µM
- IC50 [1]: < 5 µM
- IC50 (MCF-7 cells): < 50 µM

Structure (SMILES): C[C@@H](Nc1cnc2cc(-c3cn[nH]c3)ccc2n1)c1ccccc1 [Example 33, ((R)-1-Phenyl-ethyl)-[6-(1H-pyrazol-4-yl)-quinoxalin-2-yl]-amine]
- IC50 (p70S6K (h)): < 0.1 µM
- IC50 [1]: < 1 µM
- IC50 (MCF-7 cells): < 20 µM

Structure (SMILES): c1cc(CNc2cnc3cc(-c4cn[nH]c4)ccc3n2)cs1 [Example 38, [6-(1H-Pyrazol-4-yl)-quinoxalin-2-yl]-thiophen-3-ylmethyl-amine]
- IC50 (p70S6K (h)): < 0.1 µM
- IC50 (MCF-7 cells): < 10 µM

Structure (SMILES): Cc1cccc(CNc2cnc3cc(-c4cn[nH]c4)ccc3n2)c1 [Example 41, (3-Methyl-benzyl)-[6-(1H-pyrazol-4-yl)-quinoxalin-2-yl]-amine]
- IC50 (p70S6K (h)): < 0.1 µM
- IC50 [1]: < 1 µM
- IC50 (MCF-7 cells): < 10 µM

Structure (SMILES): COc1cccc([C@@H](C)Nc2cnc3cc(-c4cn[nH]c4)ccc3n2)c1 [Example 50, [(R)-1-(3-Methoxy-phenyl)-ethyl]-[6-(1H-pyrazol-4-yl)-quinoxalin-2-yl]-amine hydrochloride]
- IC50 (p70S6K (h)): < 0.1 µM
- IC50 [1]: < 1 µM
- IC50 (MCF-7 cells): < 10 µM
